Legend:
[1] = target: Smo receptor (Homo sapiens, UniProt Q99835); assay: competitive binding assay displacing fluorescently-labeled Bodipy-Cyclopamine; settings: displacement of Bodipy-Cyclopamine; assay described in WO2009074300; read-out: Ki, binding affinity with the Smo receptor
[2] = tested on: Hh pathway; assay: alkaline phosphatase-based assay of Hh pathway inactivation; format: cell-based; settings: alkaline phosphatase-based assay described in WO2009074300
Description: The level of inactivation of the Hh pathway resulting from this binding was determined using the alkaline phosphatase-based assay described in WO2009074300, resulting in an IC50 value below 30 nM.

Smo receptor, sequence (Q99835 28-787): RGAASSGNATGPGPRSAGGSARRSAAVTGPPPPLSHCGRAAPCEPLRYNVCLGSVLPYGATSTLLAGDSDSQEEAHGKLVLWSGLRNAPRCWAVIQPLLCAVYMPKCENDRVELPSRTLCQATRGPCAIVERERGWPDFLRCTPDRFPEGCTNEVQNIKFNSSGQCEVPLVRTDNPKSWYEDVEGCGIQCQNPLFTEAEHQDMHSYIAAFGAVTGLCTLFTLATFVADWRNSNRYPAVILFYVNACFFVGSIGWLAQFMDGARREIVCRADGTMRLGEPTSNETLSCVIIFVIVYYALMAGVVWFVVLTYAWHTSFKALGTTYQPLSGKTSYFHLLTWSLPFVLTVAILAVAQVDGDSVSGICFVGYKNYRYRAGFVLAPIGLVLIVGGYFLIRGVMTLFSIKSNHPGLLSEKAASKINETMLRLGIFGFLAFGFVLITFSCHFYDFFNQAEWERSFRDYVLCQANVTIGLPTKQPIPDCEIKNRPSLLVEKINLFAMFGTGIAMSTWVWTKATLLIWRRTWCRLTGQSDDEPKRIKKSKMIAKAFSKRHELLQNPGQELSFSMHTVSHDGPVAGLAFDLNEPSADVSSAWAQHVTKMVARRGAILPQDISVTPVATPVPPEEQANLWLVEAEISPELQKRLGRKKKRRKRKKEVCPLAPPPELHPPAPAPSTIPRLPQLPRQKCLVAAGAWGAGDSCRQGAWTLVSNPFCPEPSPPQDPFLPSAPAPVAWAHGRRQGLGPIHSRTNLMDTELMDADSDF

Ki [1]: < 100 nM
IC50 [2]: < 30 nM
Structure (SMILES): Cc1ccc(-c2cc(N3CCC(C(=O)N4CCN(C)CC4)CC3)ccc2Cl)nc1 [Compound C, {1-[4-Chloro-3-(5-methyl-pyridin-2-yl)-phenyl]-piperidin-4-yl}-(4-methyl-piperazin-1-yl)-methanone]

From patent US20150210669A1, “COMPOUND FOR THE TREATMENT OF TUMOURS AND TUMOUR METASTASES” (SIENA BIOTECH S.P.A., priority 2010, published 2015)
